Values of other authors as cited in patent publication US8551985B2, “Carbinol derivatives having heterocyclic linker” (Kowa Company, Ltd., priority 2009, dated 2013).

Biological target: T1, LXRβ (Homo sapiens, UniProt P55055)
T1 sequence (P55055 1-460): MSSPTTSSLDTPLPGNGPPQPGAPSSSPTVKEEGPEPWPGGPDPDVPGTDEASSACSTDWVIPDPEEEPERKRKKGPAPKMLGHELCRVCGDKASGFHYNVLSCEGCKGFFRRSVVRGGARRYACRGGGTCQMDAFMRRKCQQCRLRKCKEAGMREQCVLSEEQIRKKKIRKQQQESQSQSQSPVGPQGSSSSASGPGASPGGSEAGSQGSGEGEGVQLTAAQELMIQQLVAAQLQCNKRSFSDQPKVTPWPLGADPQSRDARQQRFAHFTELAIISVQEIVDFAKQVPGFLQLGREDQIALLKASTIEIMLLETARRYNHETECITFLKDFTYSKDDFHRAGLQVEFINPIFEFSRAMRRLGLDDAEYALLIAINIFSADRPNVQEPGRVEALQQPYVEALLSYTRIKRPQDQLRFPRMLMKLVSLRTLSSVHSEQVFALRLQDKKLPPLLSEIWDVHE

O=C(O)Cc1ccc(COc2cccc(-c3c(Cc4ccccc4)cnc4c(C(F)(F)F)cccc34)c2)cc1 [WAY-254011]
LXRβ-selective binding affinity (α/β ratio): 1 to 5
